Test results from patent US8106055B2, “Substituted amide compounds” (Gruenenthal GmbH, priority 2007, dated 2012).

Key:
[1] = molecular target: T1, human bradykinin 1 receptor (B1R) (Homo sapiens, UniProt P46663); assay: Functional investigation on the human bradykinin 1 receptor (B1R), Ca2+ FLIPR assay in CHO K1 hB1R cells; format: cell-based; conditions: B1R antagonism human; test substance 10 μM; Ca2+ FLIPR, CHO K1 hB1R cells
T1 construct: expressed in transfected cells; host or cells: CHO K1 cells
T1 sequence (P46663 1-353): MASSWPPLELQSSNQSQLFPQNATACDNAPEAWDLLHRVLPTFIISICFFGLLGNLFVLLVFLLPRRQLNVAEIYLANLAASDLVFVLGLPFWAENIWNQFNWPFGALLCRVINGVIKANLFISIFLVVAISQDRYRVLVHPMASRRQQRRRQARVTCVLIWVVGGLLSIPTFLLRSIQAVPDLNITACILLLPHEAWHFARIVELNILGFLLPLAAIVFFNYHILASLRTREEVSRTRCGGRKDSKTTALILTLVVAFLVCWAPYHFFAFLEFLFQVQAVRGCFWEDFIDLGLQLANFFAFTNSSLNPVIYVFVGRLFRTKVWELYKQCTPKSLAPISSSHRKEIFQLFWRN
Outline: (§1)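 Peak Ca2+-dependent fluorescence in B1R-transfected CHO K1 cells measures antagonism of an EC80 agonist challenge given 10-20 min after compound. Agonist is Lys-Des-Arg9-bradykinin for human, Des-Arg9-bradykinin for rat receptor.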

[2] = molecular target: T2, bradykinin 1 receptor (B1R) of the rat (Rattus norvegicus, UniProt P97583); assay: Functional investigation on the rat bradykinin 1 receptor (B1R), Ca2+ FLIPR assay in CHO K1 rB1R cells; format: cell-based; conditions: B1R antagonism rat; test substance 10 μM; Ca2+ FLIPR, CHO K1 rB1R cells
T2 construct: expressed in transfected cells; host or cells: CHO K1 cells
T2 sequence (P97583 1-337): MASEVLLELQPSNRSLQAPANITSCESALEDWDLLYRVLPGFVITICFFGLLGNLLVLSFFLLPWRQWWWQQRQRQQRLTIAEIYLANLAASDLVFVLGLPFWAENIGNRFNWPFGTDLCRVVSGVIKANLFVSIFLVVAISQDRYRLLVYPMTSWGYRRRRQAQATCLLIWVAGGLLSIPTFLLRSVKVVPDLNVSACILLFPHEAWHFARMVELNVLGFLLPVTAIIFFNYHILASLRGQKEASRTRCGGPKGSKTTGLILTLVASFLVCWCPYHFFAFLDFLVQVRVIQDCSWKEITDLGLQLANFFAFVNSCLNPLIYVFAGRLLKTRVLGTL
Outline: as §1

| Compound | B1R Ant. h [10 μM] % Inhibition [1] | B1R Ant. r [10 μM] % Inhibition [2] |
| --- | --- | --- |
| COc1cc(C)c(S(=O)(=O)N(C)CCOCC(=O)NCCC2CCC(C(c3ccc(F)cc3)N(C)C)CC2)c(C)c1C (centres unmarked) [Example 354] | 104% | 44% |
| CN(C)C(c1cccc(F)c1)C1CCC(CNC(=O)COCCN2CCN(S(=O)(=O)c3ccccc3)CC2)CC1 (centres unmarked) [Example 308] | −1% | 17% |
| COc1ccc(S(=O)(=O)N2CCCCC2CCOCC(=O)NCC2CCC(C(c3ccc(Cl)cc3)N(C)C)CC2)cc1 (centres unmarked) [Example 312] | 71% | 31% |
| COc1ccc(S(=O)(=O)N2CCC(OCC(=O)NCCC3CCC(C(c4ccc(Cl)cc4)N(C)C)CC3)C2)cc1OC (centres unmarked) [Example 338] | −3% | 27% |
| COc1ccc(S(=O)(=O)N2CCCCC2COCC(=O)NCC2CCC(C(c3ccc(F)cc3)N(C)C)CC2)cc1 (centres unmarked) [Example 345] | 76% | 77% |
| CN(C)C(c1cccc(F)c1)C1CCC(CNC(=O)COCCC2CCN(S(=O)(=O)c3ccccc3)CC2)CC1 (centres unmarked) [Example 333] | 17% | 15% |
| CN(C)C(c1cccc(F)c1)C1CCC(CNC(=O)COC2CCCN(S(=O)(=O)c3ccccc3)C2)CC1 (centres unmarked) [Example 309] | −4% | −2% |
| CN(C)C(c1cccc(F)c1)C1CCC(CCNC(=O)COCCN(Cc2ccccc2)S(=O)(=O)c2ccccc2)CC1 (centres unmarked) [Example 278] | 16% | 7% |
| CN(C)C(c1cccs1)C1CCC(NC(=O)COCCN(C)S(=O)(=O)c2ccc(OC(F)(F)F)cc2)CC1 (centres unmarked) [Example 282] | −31% | 20% |
| COc1ccc(S(=O)(=O)N2CCC(OCC(=O)NC3CCC(C(c4cccc(F)c4)N(C)C)CC3)C2)cc1OC (centres unmarked) [Example 323] | −14% | 23% |
